Results: patent publication US10130598B2, “Methods and compositions for administration of 3-halopyruvate and related compounds for the treatment of cancer” (The Johns Hopkins University, priority 2008, dated 2018)
pIC50: −log10 of the molar value.

How the values were obtained:
H1299 cells = test: Luminescence ATP assay, H1299; assay type: cell-based
Description: (§1) Cytotoxicity of 3-BrPA was evaluated by the IC50 values, representing the drug concentration which depletes ATP by 50% compared to non-treated control. On day 1, cells were seeded into 96-well plates in a volume of 100 μl per well. On day 2, the medium of all wells was removed and an aliquot of 100 μl of media having serial dilutions of 3-BrPA in PBS, NaHCO3, NaOH, KOH and KHCO3 was added to the appropriate well. After 24 h of drug exposure cytotoxic effects of 3-BrPA were monitored by cellular ATP level using CellTiter-Glo™ assay reagents from Promega Corp (Madison, Wis.). Briefly, 100 μl assay reagent was added to each well and mixed at room temperature for 2 min to develop luminescent signal. The luminescence intensity (cps) from each sample was determined with a spectrometer (Model Victor III, Perkin Elmer, Mass.). Relative luminescence was calculated in proportion to the numbers of living cells per sample well. The results are expressed as the mean of three independent experiments. The intracellular ATP contents were calculated and normalized by equal cell number and expressed as the percentage of the control cells. The IC50 values were estimated graphically from dose-response plots.
The anti-metabolic effect of 3-BrPA on H1299 cells was examined using luminescence ATP assays, as described above. […]

SK-Hep 1 cells = test: ATP dependent luminescence cell viability assay, SK-Hep1; assay type: cell-based
Source text: The non-small cell lung cancer (NSCLC) cell line NCI-H1299, the breast cancer cell lines MCF7 and MDA MB 231 and the Hep3B, Hep2G and SK-Hep1 cells were obtained from the American Type Culture Collection (ATCC) (Manassas, Va., USA) and maintained as a monolayer culture in Eagle's minimum essential medium (MEM, Invitrogen, Gaithersburg, Md., USA) supplemented with 10% fetal bovine serum at 37 C and 5% CO2. All treatments were done in triplicate samples on 96-well plates. VX2 cells were maintained as described in Geschwind et al., Cancer Res., 62:3909-3913 (2002).
Cytotoxicity of 3-BrPA was evaluated by the IC50 values, representing the drug concentration which depletes ATP by 50% compared to non-treated control. On day 1, cells were seeded into 96-well plates in a volume of 100 μl per well. On day 2, the medium of all wells was removed and an aliquot of 100 μl of media having serial dilutions of 3-BrPA in PBS, NaHCO3, NaOH, KOH and KHCO3 was added to the appropriate well. […] Briefly, 100 μl assay reagent was added to each well and mixed at room temperature for 2 min to develop luminescent signal. The luminescence intensity (cps) from each sample was determined with a spectrometer (Model Victor III, Perkin Elmer, Mass.). […]
The effects on cell viability and cellular metabolism of 3-BrPA on Hep3B and VX2 cells were examined using luminescence ATP assays, as described above. […]

[1] = test system: Hep3B, HepG2, SK-Hep1 and VX2 cells; test: Annexin V apoptosis assay (flow cytometry and fluorescent microscopy); assay type: cell-based
Description: The apoptosis of 3-BrPA treated cells was evaluated using Annexin V staining and the formation of active caspase-3. Cells treated with 3-BrPA were stained with anti-Annexin V and analyzed by flow cytometry as well as fluorescent microscopy. Flow cytometry was performed using a Becton-Dickinson FACSCalibur. The gating was done based on unstained control cells, Annexin V—PE stained and 7-AAD stained control cells. For fluorescent microscopy, Annexin V staining was performed using Annexin V staining Microscopy kit (BD Biosciences, USA) according to the protocol recommended by the manufacturer. In brief, cells grown in chambered slides were treated with either 3BrPA or the vehicle, washed once with ice-cold PBS followed by two washes with binding buffer, at the end of the treatment period. Cells were then incubated with the FITC-conjugated Annexin V fluorescent antibody for 15 min followed by a gentle wash. The cells were kept in binding buffer and images were observed captured using a Zeiss Axiovert 200 Microscope (Carl Zeiss Microimaging Inc., USA). Active caspase-3, an apoptotic marker, was identified by western blot analysis. Lysates prepared from equal numbers of cells treated with different concentrations of 3BrPA were subjected to SDS-PAGE electrophoresis and immunoblotting against active (cleaved) caspase-3.
In order to confirm that the cytotoxic effects of 3BrPA involves cellular apoptotic pathways, Annexin V levels and Caspase-3 activation was examined in cells treated with 3-BrPA. […] Additionally, immunoblotting of cell lysates with activated-Caspase-3 specific antibodies confirmed the activation of caspase-3 during 3BrPA mediated cell death (FIG. 8).

[2] = Effect of 3-BrPA concentration on tolerability of oral administration; assay type: in vivo, nude mice; conditions: for Time to death (all mice died): oral
Description: To determine the effect of compound concentration on the tolerable dose of 3-BrPA, a series of experiments were performed in nude mice to determine how a change in administered volume, and therefore a change 3-BrPA concentration, would influence compound efficacy and animal survival. For these experiments, 3-BrPa was administered at a dose of 200 mg/kg and a pH of 4.
All mice in group 1 and 2 (n=3 per group) died within 24 hours after receiving 5 mg of 3-BrPA in volumes of […], respectively.

MCF7 cells = test: Luminescence ATP assay, MCF7; assay type: cell-based
Description: as §1
The anti-metabolic effect of 3-BrPA on MCF7 and MDA MB231 cells was examined using luminescence ATP assays, as described above. […]

O=C(O)C(=O)CBr [3-BrPA, 3-bromopyruvate]
ATP level (bioluminescent quantification) (H1299 cells): dose and time dependent energy (ATP) depletion
Level of ATP (SK-Hep 1 cells; SK-Hep1, 3, 24, 48 hours): dose and time dependent decrease
pIC50 (SK-Hep 1 cells; SK-Hep 1, at 48 hours, read-out: IC50 (ATP depletion)): 3.90
Annexin V positive cells (flow cytometry) ([1]; Annexin V-PE and 7-AAD staining, 100 and 200 μM): dose dependent increase
Number of apoptotic cells compared with control ([1]; all cell lines, after 2 hours of treatment, 200 μM): significant increase
Annexin V staining (photomicrographs) ([1]; treated vs control): elevated levels of Annexin V
Time to death (all mice died) ([2]; group 1: 5 mg (200 mg/kg, pH 4) in a volume of 50 ml): ≤ 24 h
Time to death (all mice died) ([2]; group 2: 5 mg (200 mg/kg, pH 4) in a volume of 100 ml): ≤ 24 h
Tolerability of daily oral administration ([2]; group 3: 200 mg/kg, pH 4, volume of 150 ml): did not show any signs of discomfort
Tolerability of daily oral administration ([2]; group 4: 200 mg/kg, pH 4, volume of 200 ml): did not show any signs of discomfort
Tolerability of daily oral administration ([2]; group 5: 200 mg/kg, pH 4, volume of 300 ml): did not show any signs of discomfort
ATP level (bioluminescent quantification) (MCF7 cells): dose and time dependent energy (ATP) depletion
